Publication PMC4148704, “Agaricus meleagris pyranose dehydrogenase: Influence of covalent FAD linkage on catalysis and stability” (Archives of Biochemistry and Biophysics, 2014)

Biological target: T1, AmPDH (Agaricus meleagris pyranose dehydrogenase) (Macropsalliota meleagris, UniProt Q3L245)
T1 construct: gene pdh1; recombinant from Pichia pastoris X-33, secreted glycoprotein, about 75 kDa, monomer, 577 amino acids, covalent 8alpha-N(3)-histidyl FAD at H103
Assay: stopped-flow reductive half-reaction, […] nm
Assay type: biochemical
Details: pH 7.5, 65 mM sodium phosphate, 30 °C; 0.1-5 mM D-glucose; only a bimolecular rate constant

T1 sequence (Q3L245 26-602): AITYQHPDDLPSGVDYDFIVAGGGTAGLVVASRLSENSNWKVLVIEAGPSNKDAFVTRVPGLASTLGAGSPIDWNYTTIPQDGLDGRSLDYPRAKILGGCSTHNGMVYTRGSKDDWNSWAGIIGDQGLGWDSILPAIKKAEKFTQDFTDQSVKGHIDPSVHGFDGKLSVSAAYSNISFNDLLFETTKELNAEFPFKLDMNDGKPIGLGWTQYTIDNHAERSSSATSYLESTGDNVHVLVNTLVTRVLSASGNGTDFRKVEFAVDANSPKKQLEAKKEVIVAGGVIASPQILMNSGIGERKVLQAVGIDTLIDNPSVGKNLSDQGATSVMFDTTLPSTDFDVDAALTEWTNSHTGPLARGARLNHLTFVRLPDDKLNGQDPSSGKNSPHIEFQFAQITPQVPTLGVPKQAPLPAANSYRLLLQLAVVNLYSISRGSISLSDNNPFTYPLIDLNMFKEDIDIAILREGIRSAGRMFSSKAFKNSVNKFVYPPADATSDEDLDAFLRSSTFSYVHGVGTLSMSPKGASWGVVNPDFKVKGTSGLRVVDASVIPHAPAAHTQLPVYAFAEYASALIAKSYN

OC[C@H]1OC(O)[C@H](O)[C@@H](O)[C@@H]1O (stereo partly drawn) [D-glucose]
kapp: spectral changes of wild-type AmPDH upon addition of D-glucose
